Reference: ChEMBL document CHEMBL4257222, “Use of small molecule inhibitors targeting eya tyrosine phosphatase” (2016)
Values belong to the molecule of their own block, whether it stands above or below them. The source made the active and inactive calls. The calls are words filed in the database; no cut-off is given here.

Key:
[1] = test system: HUVEC; test: Inhibition of tube formation of HUVEC by matrigel tube-formation assay; type: functional, cell-based; conditions: Homo sapiens
[2] = test system: Aorta; test: Inhibition of sprouting in mouse aorta cultured in collagen gels at 7.5 uM by aortic ring sprouting assay; type: functional, tissue-based
[3] = test system: Aorta; test: Inhibition of branching in mouse aorta cultured in collagen gels assessed as reduction in number of branch-points at 7.5 uM by aortic ring sprouting assay; type: functional, tissue-based
[4] = Selectivity index, ratio of IC50 for inhibition of PTP1B (unknown origin) by p-nitrophenylphosphate assay to IC50 for inhibition of mouse Eya3 catalytic domain (223 to 510 residues) by p-nitrophenylphosphate assay
[5] = target: T1, Protein phosphatase EYA2 (Homo sapiens) (UniProt O00167); test: Inhibition of Eya2 (unknown origin) expressed in human MCF10A cells assessed as reduction in cell migration; type: cell-based
T1 sequence (whole entry): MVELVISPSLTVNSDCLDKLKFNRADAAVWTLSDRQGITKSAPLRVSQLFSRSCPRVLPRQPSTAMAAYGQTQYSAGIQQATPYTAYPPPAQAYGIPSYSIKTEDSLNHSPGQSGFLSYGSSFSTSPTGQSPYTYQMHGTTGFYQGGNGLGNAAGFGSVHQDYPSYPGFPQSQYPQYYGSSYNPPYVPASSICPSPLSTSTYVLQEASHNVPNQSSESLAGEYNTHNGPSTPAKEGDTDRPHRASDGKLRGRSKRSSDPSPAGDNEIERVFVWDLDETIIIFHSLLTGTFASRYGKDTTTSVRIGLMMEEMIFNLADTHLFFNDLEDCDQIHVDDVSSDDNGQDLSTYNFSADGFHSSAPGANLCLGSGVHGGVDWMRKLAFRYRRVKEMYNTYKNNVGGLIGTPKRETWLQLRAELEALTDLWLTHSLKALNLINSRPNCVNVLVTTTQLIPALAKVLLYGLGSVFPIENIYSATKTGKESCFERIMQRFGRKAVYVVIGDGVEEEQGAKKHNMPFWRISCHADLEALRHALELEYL

[6] = target: T1, Protein phosphatase EYA2 (Homo sapiens); test: Inhibition of Eya2 (unknown origin) expressed in human MCF10A cells assessed as reduction in cell migration at 1 uM; type: cell-based
[7] = test system: T2, Protein phosphatase EYA2 (Homo sapiens), O00167 [D250N]; test: Inhibition of Eya2 D250N mutant (unknown origin) expressed in human MCF10A cells assessed as reduction in cell migration; type: cell-based; conditions: concentration not given here
T2 sequence (whole entry): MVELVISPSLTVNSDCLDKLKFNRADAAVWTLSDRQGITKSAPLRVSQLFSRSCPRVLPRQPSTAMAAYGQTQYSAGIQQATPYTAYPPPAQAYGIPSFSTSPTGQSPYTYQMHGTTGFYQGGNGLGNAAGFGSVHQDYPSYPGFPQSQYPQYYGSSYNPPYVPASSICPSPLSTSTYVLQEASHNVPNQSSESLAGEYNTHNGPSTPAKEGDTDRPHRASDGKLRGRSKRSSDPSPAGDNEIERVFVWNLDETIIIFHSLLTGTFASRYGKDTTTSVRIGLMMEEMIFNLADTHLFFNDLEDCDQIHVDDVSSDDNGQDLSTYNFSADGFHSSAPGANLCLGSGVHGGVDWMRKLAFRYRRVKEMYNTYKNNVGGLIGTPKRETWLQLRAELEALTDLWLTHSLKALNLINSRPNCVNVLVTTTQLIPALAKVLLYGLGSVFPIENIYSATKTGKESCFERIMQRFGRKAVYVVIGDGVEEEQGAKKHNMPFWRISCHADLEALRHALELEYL

[8] = test system: MCF-10A; test: Toxicity in human MCF10A cells expressing Eya2 (unknown origin) assessed as effect on cell proliferation of; type: cell-based
[9] = test system: HUVEC; test: Toxicity in HUVEC assessed as reduction in cell proliferation incubated for 3 days by WST8 assay; type: cell-based; set-up: scale not given: the % may be the effect or the level left; conditions: human, 72 h
[10] = test system: HUVEC; test: Inhibition of cell motility of HUVEC; type: functional, cell-based; conditions: Homo sapiens
[11] = test system: HUVEC; test: Toxicity in HUVEC assessed as effect on cell proliferation by MTT assay; type: cell-based; conditions: human
[12] = test system: HUVEC; test: Inhibition of tubulogenesis of HUVEC grown on growth factor-reduced matrigel by inverted microscopy; type: functional, cell-based; conditions: Homo sapiens
[13] = test system: HUVEC; test: Inhibition of tubulogenesis of HUVEC grown on growth factor-reduced matrigel at 2.5 uM by inverted microscopy; type: functional; conditions: Homo sapiens
[14] = test system: Aorta; test: Inhibition of endothelial cell migration in VEGF165-stimulated […] mouse aortic rings incubated in collagen matrix assessed as induction of shorter sprouts incubated for 10 days by aortic ring assay; type: functional, tissue-based
[15] = test system: Aorta; test: Inhibition of endothelial cell migration in VEGF165-stimulated […] mouse aortic rings incubated in collagen matrix assessed as reduction in microvascular density incubated for 10 days by aortic ring assay; type: functional, tissue-based
[16] = species on record: Danio rerio; test: Inhibition of angiogenesis in FLK1-GFP trangenic zebrafish model of angiogenesis assessed as induction of defects in developing vasculature measured after 24 hpf stage by fluorescence microscopy; type: functional, organism-based
[17] = species on record: Danio rerio; test: Inhibition of angiogenesis in FLK1-GFP trangenic zebrafish model of angiogenesis assessed as reduction in intersegmental vessel number and extension measured after 24 hpf stage by fluorescence microscopy; type: functional, organism-based
[18] = species on record: Danio rerio; test: Inhibition of angiogenesis in FLK1-GFP trangenic zebrafish model of angiogenesis assessed as effect on vasculature exposed to compound starting at later stage (20 hpf) by fluorescence microscopy; type: functional, organism-based
[19] = species on record: Mus musculus; test: Inhibition of post-natal retinal angiogenesis in postnatal mouse assessed as reduction in branch points at 100 uM injected into eyes at P0.5, P3 and P5; type: functional, organism-based
[20] = species on record: Mus musculus; test: Inhibition of proliferative retinopathy in mouse model of oxygen-induced retinopathy assessed as reduction in formation of neovascular tufts at 50 to 100 pmole injected at P12 and measured at P16; type: functional, organism-based
[21] = species on record: Mus musculus; test: Inhibition of proliferative retinopathy in mouse model of oxygen-induced retinopathy assessed as reduction in revascularization into the vaso-obliterated area at 50 to 100 pmole injected at P12 and measured at P16; type: functional, organism-based
[22] = test system: HUVEC; test: Inhibition of tubulogenesis of HUVEC grown on growth factor-reduced matrigel at 7.5 uM by inverted microscopy; type: functional, cell-based; conditions: Homo sapiens
[23] = test system: A673; test: Antitumor activity against human A673 cells xenografted in nude mouse assessed as inhibition tumor growth at 25 mg/kg/day, ip and measured every other day for 2 weeks; type: functional, organism-based
[24] = target: T3, Protein phosphatase EYA3 (Homo sapiens) (UniProt Q99504); conditions: 50 uM
T3 sequence (whole entry): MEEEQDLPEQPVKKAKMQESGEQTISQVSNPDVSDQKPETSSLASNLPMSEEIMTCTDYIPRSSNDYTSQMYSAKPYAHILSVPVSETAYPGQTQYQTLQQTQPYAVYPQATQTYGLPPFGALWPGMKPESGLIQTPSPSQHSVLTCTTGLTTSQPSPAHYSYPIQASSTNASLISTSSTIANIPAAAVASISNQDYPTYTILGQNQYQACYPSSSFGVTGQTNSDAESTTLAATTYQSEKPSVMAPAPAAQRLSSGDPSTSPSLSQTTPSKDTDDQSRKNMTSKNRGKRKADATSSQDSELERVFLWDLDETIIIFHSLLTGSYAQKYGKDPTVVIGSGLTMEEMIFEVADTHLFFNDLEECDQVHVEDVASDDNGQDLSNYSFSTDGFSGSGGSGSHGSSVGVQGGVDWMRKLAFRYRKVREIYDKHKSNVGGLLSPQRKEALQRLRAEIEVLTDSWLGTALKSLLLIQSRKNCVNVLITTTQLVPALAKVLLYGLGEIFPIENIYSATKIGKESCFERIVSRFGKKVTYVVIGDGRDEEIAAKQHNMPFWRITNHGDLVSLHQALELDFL
Description: Inhibition of human Eya3 isoform 2 (127 to 573 residues) interaction with His-tagged SIX2 at 50 uM by Ni-NTA agarose gel based pull down assay

[25] = test system: HUVEC; test: Inhibition of tube formation of HUVEC assessed as induction of endothelial cells aggregation by matrigel tube-formation assay; type: functional, cell-based; conditions: Homo sapiens
[26] = test system: HUVEC; test: Inhibition of tube formation of HUVEC assessed as induction of reduction in endothelial cells organization after 2 hrs by matrigel tube-formation assay; type: functional, cell-based; conditions: Homo sapiens
[27] = test system: HUVEC; test: Inhibition of tube formation of HUVEC assessed as induction of reduction in endothelial cells organization after 6 hrs by matrigel tube-formation assay; type: functional, cell-based; conditions: Homo sapiens
[28] = test system: HUVEC; test: Inhibition of tube formation of HUVEC assessed as reduction of interconnecting cellular aggregates of endothelial cells after 20 hrs by matrigel tube-formation assay; type: functional, cell-based; conditions: Homo sapiens
[29] = test system: HUVEC; test: Inhibition of tube formation of HUVEC in presence of hight level of fetal bovine serum by matrigel tube-formation assay; type: functional, cell-based; conditions: Homo sapiens

SMILES: CCc1oc2ccc(O)cc2c1C(=O)c1cc(Br)c(O)c(Br)c1
inhibition [1]: inactive | inhibition [2]: Active | inhibition [3]: Active

SMILES: CC(O)c1oc2ccccc2c1C(=O)c1cc(Br)c(O)c(Br)c1 (stereo not given)
inhibition [2]: Active | inhibition [3]: Active

Ratio IC50 [4]: > 100 | inhibition [5]: Dose-dependent effect | inhibition [6]: > 50% | inhibition [7]: < 10%
SMILES: CCc1oc2ccccc2c1C(=O)c1ccc(O)cc1 [BENZARONE]
Activity [8]: Non-Toxic | Activity [9]: Toxic | inhibition [1]: Active | inhibition [10]: Active | Activity [11]: Non-Toxic | inhibition [12]: Dose-dependent effect | inhibition at 2.5 µM [13]: 50% | inhibition [14]: Dose-dependent effect | inhibition [15]: Dose-dependent effect | inhibition [16]: Dose-dependent effect | inhibition [17]: Dose-dependent effect | inhibition [18]: inactive | inhibition [19]: Active | inhibition [20]: Active | inhibition [21]: Active

inhibition [5]: Dose-dependent effect | inhibition [7]: < 10%
SMILES: CCCCc1oc2ccccc2c1C(=O)c1ccc(O)cc1
Activity [8]: Non-Toxic | inhibition [10]: Active | Activity [11]: Non-Toxic | inhibition [22]: Active | inhibition [14]: Dose-dependent effect | inhibition [15]: Dose-dependent effect | inhibition [16]: Dose-dependent effect | inhibition [17]: Dose-dependent effect | inhibition [18]: inactive | inhibition [20]: Active | inhibition [21]: Active

inhibition [5]: Dose-dependent effect | inhibition [7]: < 10% | inhibition [24]: inactive
SMILES: CCc1oc2ccccc2c1C(=O)c1cc(Br)c(O)c(Br)c1 [BENZBROMARONE]
Activity [8]: Non-Toxic | Activity [9]: Toxic | inhibition [1]: Active | inhibition [10]: Active | Activity [11]: Non-Toxic | inhibition [22]: Active | inhibition [14]: Dose-dependent effect | inhibition [15]: Dose-dependent effect | inhibition [16]: Dose-dependent effect | inhibition [17]: Dose-dependent effect | inhibition [18]: inactive | inhibition [20]: Active | inhibition [21]: Active | TGI [23]: Active

SMILES: CCc1oc2cc(O)ccc2c1C(=O)c1cc(Br)c(O)c(Br)c1
Activity [9]: > 50% | inhibition [1]: Active | inhibition [25]: Active | inhibition [26]: Active | inhibition [27]: Active | inhibition [28]: Active | inhibition [29]: inactive | inhibition [2]: Active | inhibition [3]: Active

SMILES: Cc1oc2ccccc2c1C(=O)c1cc(I)c(O)c(I)c1
inhibition [1]: inactive | inhibition [2]: Active | inhibition [3]: Active

SMILES: Cc1oc2ccccc2c1C(=O)c1ccc(O)c(I)c1
inhibition [1]: inactive | inhibition [2]: Active | inhibition [3]: Active

SMILES: CCCCc1oc2ccccc2c1C(=O)c1cc(I)c(O)c(I)c1
inhibition [1]: inactive | inhibition [2]: Active | inhibition [3]: Active

SMILES: CC(O)CCc1oc2ccccc2c1C(=O)c1cc(I)c(O)c(I)c1 (stereo not given)
inhibition [1]: inactive | inhibition [2]: Active | inhibition [3]: Active
